These results are taken from patent US20070026042A1, “System for treating aneurysmal disease” (priority 2005, published 2007).

Data set [1] concerns human coronary artery smooth muscle cells. The data set can be described thus: Anti-proliferative activity in cultured human coronary artery smooth muscle cells. In kind it is cell-based. From the text: The multiple curves represent various concentrations of mycophenolic acid ranging from zero to one thousand nanomolar concentrations.
FIG. […]
The multiple curves represent various concentrations of cladribine ranging from zero to nine hundred nanomolar concentrations.
(§1) The multiple curves represent various concentrations of topotecan ranging from zero to three hundred nanomolar concentrations.
(§2) The multiple curves represent various concentrations of etoposide ranging from zero to eight hundred nanomolar concentrations.
The multiple curves represent various concentrations of Panzem® ranging from zero to 100 micromolar concentrations.

Data set [2] in a line: Cell viability assay (cytotoxicity). The class given is cell-based.
Source text: as §1, §2

A further data set has as its system tumor cell lines. The conditions noted are these: Woo et al., J. Med Chem 2002; cited from earlier work.
In data set [3] the test system is infrarenal abdominal aorta. As to the kind of experiment: Elastase-induced abdominal aortic aneurysm model in rats. The class given is in vivo, Wistar rats. The conditions noted are these: for relative efficacy in suppressing aneurysmal dilatation compared to Dox at the same dose / inhibition of aortic dilatation induced by elastase perfusion: 15 mg/kg/day; for inhibition of aortic dilatation induced by elastase perfusion: vs saline, Student's t-test. From the text:
Male Wistar rats (350-400 g) were subjected to perfusion of an isolated segment of the infrarenal abdominal aorta with 50 units of porcine pancreatic elastase, using the method described by Anidjar. et al. (Anidjar, S, Salzmann, J L, Generic, D, Lagneau, P, Camilleri, J P, and Michel, J B, “Elastase induced experimental aneurysms in rats,” Circulation 82:973-981 (1990); Halpern et al. (Halpern, V J. Liao, Nackman, G B, Gandhi, R H, Irizarry, E, Scholes, J V, Ramey, W G, and Tilson, M D, “The elastase infusion model of experimental aortic aneurysms: Synchrony of induction of endogenous protinases with matrix destruction and inflammatory cell response,” J. Vasc. Surg. […] Surg 23:336-346 (1996)). This method is an accepted model for experimental induction of abdominal aortic aneurysms. The animals (n=6 rats in each group) were then treated with twice-daily subcutaneous injections of either saline vehicle (control), or various doses of doxycycline (Dox) or one of four different, non-antibiotic, chemically-modified tetracyclines (CMTs; CollaGenex, Inc., Newtown, Pa.). Aortic diameter (AD) was measured with microcalipers before and after elastase perfusion, and just prior to sacrifice on day 7. Abdominal aortic aneurysms were defined as an increase in final AD to at least twice that measured before perfusion (≥ 100% increase). Aortic tissues from two animals in each group were perfusion-fixed with 10% neutral buffered formalin, embedded in paraffin, and stained with Verhoeff-van Geisen (WG) for elastin. Tissues from the remaining animals were extracted, normalized to total protein, and analyzed by gelatin substrate zymography as described (Thompson et al. 1995; Halpern et al. 1994; Petrinec 1996).
For saline-treated control animals, mean AD increased by 125.±.18%, and 5 of the 6 (83%) of the animals had abdominal aortic aneurysms as defined.

Data set [4] in a line: Liquid formulations of sirolimus and analogs: drug concentration by liquid chromatography, visual observation. The conditions noted are these: Vitamin E TPGS, water, ethanol less than two percent. The class given is physicochemical.
Method: Certain excipients, such as Vitamin E TPGS and BHT may be utilized to enhance the storage stability of sirolimus compounds through their anti-oxidation properties.
The concentrations of each constituent were determined by liquid chromatography and are presented as weight by volume figures.
In another exemplary embodiment, the liquid formulation of sirolimus comprises water and ethanol as co-solvents and Vitamin E TPGS as the excipient. The liquid formulation was created utilizing the following process. Two hundred milligrams of sirolimus and two grams of ethanol were added to a pre-weighed twenty milliliter scintillation vial. The vial was vortexed and sonicated until the sirolimus was completely dissolved. Approximately six hundred milligrams of Vitamin E TPGS was then added to the solution of ethanol and sirolimus. The vial was vortexed again until a clear yellowish solution was obtained. Nitrogen gas was then used to reduce the amount of ethanol in the vial to approximately two hundred twenty-nine milligrams. In a separate vial, three hundred milligrams of Vitamin E TPGS was dissolved in eleven milliliters of purified water while undergoing vortexing. The Vitamin E TPGS and water solution was then added to the first vial containing the sirolimus, Vitamin E TPGS and ethanol. The first vial was then vortexed vigorously and continuously for three minutes. […]
Data set [5] concerns human coronary artery smooth muscle cell. As to the kind of experiment: MTS cytotoxicity assay. In kind it is cell-based. To be noted: 6.6 nanomolar to 30,000.00 nanomolar, FIG. 69. From the text:
Typically, a control is utilized to determine baseline toxicity.

Setting [6] is: synchronized cells, two percent fetal bovine serum.
The mark [7] stands for this setting: non-synchronized cells, two percent fetal bovine serum.

For the compound `CC[C@@]1(O)C(=O)OCc2c1cc1n(c2=O)Cc2cc3c(CN(C)C)c(O)ccc3nc2-1` [topotecan], the “effect of addition to rapamycin-treated cells on the anti-proliferative rapamycin dose response curve” value (shortened to “effect of addition”) in data set [1] (setting [6]) is “leftward and upward shift”. In data set [2] (concentrations up to one micromolar), the “cytotoxicity in cell viability assay” value is given as “non-cytotoxic”.

In data set [1] (in vitro cell culture studies), `CC(/C=C/C(=O)NO)=C\[C@@H](C)C(=O)c1ccc(N(C)C)cc1` [trichostatin A] displayed a 50% inhibitory concentration (IC50) of about 6 nM. Also, the “inhibition of human coronary artery smooth muscle cell proliferation” value in data set [1] (in vitro cell culture studies, FIG. 51) is “completely inhibit”. The “anti-proliferative IC50's” value in the data set with tumor cell lines is on record as “low nM range”.

Regarding `CC1(O)c2c(Cl)ccc(O)c2C(=O)C2=C(O)C3(O)C(=O)C(C(N)=O)=C(O)CC3CC21` (stereo not drawn) [CMT-4, 4-dedimethylamino-7-chlorotetra-cycline], in data set [3], the “relative efficacy in suppressing aneurysmal dilatation compared to Dox at the same dose” value (from here on “relative efficacy”) came out at 75% and the “inhibition of aortic dilatation induced by elastase perfusion” value (shortened to “inhibition of aortic dilatation induced”) is given as “did not reach statistical significance”.

Turning to “4-dedimethylamino-12a-deoxytetracycline [CMT-7]”, in data set [3], the “relative efficacy” value amounted to 92% and the “inhibition of aortic dilatation induced” value is “statistically significant”.

On to `C[C@H]1c2cccc(O)c2C(=O)C2=C(O)[C@]3(O)C(=O)C(C(N)=O)=C(O)[C@@H](N(C)C)[C@@H]3[C@@H](O)[C@@H]21` [Dox, doxycycline], for which, in data set [3] (60 mg/kg/day, twice-daily subcutaneous injections, day 7, saline control 125.±.18%), the “aortic dilatation (mean increase in aortic diameter)” value is 61.±.7%. In addition, the “dose of maximal inhibition of aortic dilatation” value in data set [3] (dose-dependent effect, FIG. 76) was “about 12.5 mg/kg/day”.

In the case of `CO[C@H]1C[C@@H]2CC[C@@H](C)[C@@](O)(O2)C(=O)C(=O)N2CCCC[C@H]2C(=O)O[C@H]([C@H](C)C[C@@H]2CC[C@@H](OC(=O)C(C)(CO)CO)[C@H](OC)C2)CC(=O)[C@H](C)/C=C(\C)[C@@H](O)[C@@H](OC)C(=O)[C@H](C)C[C@H](C)/C=C/C=C/C=C/1C` [CCI-779], the “concentration of CCI-779 in the final solution (HPLC)” value in data set [4] is 15000 µg/mL.

Take `COc1cc2c(cc1O)CC[C@@H]1[C@@H]2CC[C@]2(C)[C@@H](O)CC[C@@H]12` [Panzem®, 2-methoxyestradiol]: the “effect of addition” value in data set [1] (setting [6]) is “increases the percent of inhibition of rapamycin alone”. Besides, the “inhibition of human coronary artery smooth muscle cell proliferation in vitro” value in data set [1] (synchronized cells, two percent fetal bovine serum, FIG. 66) is given as “extremely effective inhibitor”. Also, in data set [5], the “cell survival in MTS assay” value is given as “do not reduce human coronary artery smooth muscle cell survival”.

For `NC(=O)C1=C(O)C[C@@H]2C[C@@H]3Cc4cccc(O)c4C(=O)C3=C(O)[C@]2(O)C1=O` [CMT-3, 6-demethyl-6-deoxy 4-dedimethylaminotetracycline], in data set [3], the “relative efficacy” value is reported as 92% and the “inhibition of aortic dilatation induced” value is given as “statistically significant”.

In the case of `Nc1nc(Cl)nc2c1ncn2[C@H]1C[C@H](O)[C@@H](CO)O1` [Cladribine, 2-chlorodeoxyadenosine], the “inhibition of human coronary artery smooth muscle cell proliferation” value in data set [1] (non-synchronized cells stimulated with two percent fetal bovine serum, FIG. 58) is listed as “completely inhibits”. Also, the “effect of addition” value in data set [1] (setting [7]) was “leftward and upward shift”.

Consider `COc1cc([C@@H]2c3cc4c(cc3[C@@H](O[C@@H]3O[C@@H]5CO[C@@H](C)O[C@H]5[C@H](O)[C@H]3O)[C@H]3COC(=O)[C@H]23)OCO4)cc(OC)c1O` [etoposide], for which the “effect of addition” value in data set [1] (setting [7]) is “leftward and upward shift”. The “cytotoxicity in cell viability assay” value in data set [2] (concentrations up to ten micromolar) is given as “non-cytotoxic”.

On to `COc1c(C)c2c(c(O)c1C/C=C(\C)CCC(=O)O)C(=O)OC2` [mycophenolic acid], for which the “effect of addition” value in data set [1] (setting [7]) was “leftward and upward shift”.

On to `C[C@H]1c2cccc(O)c2C(O)=C2C(=O)[C@]3(O)C(O)=C(C(N)=O)C(=O)C[C@@H]3[C@@H](O)[C@@H]21` [CMT-8, 6-α-deoxy-5-hydroxy-4-dedimethylaminotetracycline], for which, in data set [3], the “relative efficacy” value is given as 105% and the “inhibition of aortic dilatation induced” value is reported as “statistically significant”.
